ChEMBL document CHEMBL1782000, “Thiazole-based chalcones as potent antimicrobial agents. Synthesis and biological evaluation” (2011)
≈ marks a conversion by molar mass, not a printed value.

Legend:
[1] = tested on: Staphylococcus aureus; experiment: Antibacterial activity against Staphylococcus aureus ATCC 6538 after 24 hrs by microdilution method; type: functional; conditions: ATCC 6538, 24 h
[2] = tested on: Bacillus cereus; experiment: Antibacterial activity against Bacillus cereus clinical isolate after 24 hrs by microdilution method; type: functional
[3] = tested on: Micrococcus flavus; experiment: Antibacterial activity against Micrococcus flavus ATCC 10240 after 24 hrs by microdilution method; type: functional; conditions: ATCC 10240, 24 h
[4] = tested on: Listeria monocytogenes; experiment: Antibacterial activity against Listeria monocytogenes NCTC 7973 after 24 hrs by microdilution method; type: functional; conditions: NCTC 7973, 24 h
[5] = tested on: Pseudomonas aeruginosa; experiment: Antibacterial activity against Pseudomonas aeruginosa ATCC 27853 after 24 hrs by microdilution method; type: functional; conditions: ATCC 27853, 24 h
[6] = tested on: Salmonella typhimurium; experiment: Antibacterial activity against Salmonella Typhimurium ATCC 13311 after 24 hrs by microdilution method; type: functional, Salmonella enterica subsp. enterica serovar Typhimurium; conditions: Salmonella enterica, ATCC 13311, 24 h
[7] = tested on: Escherichia coli; experiment: Antibacterial activity against Escherichia coli ATCC 35210 after 24 hrs by microdilution method; type: functional; conditions: ATCC 35210, 24 h
[8] = tested on: Enterococcus faecalis; experiment: Antibacterial activity against Enterococcus faecalis isolate obtained from human after 24 hrs by microdilution method; type: functional
[9] = tested on: Staphylococcus aureus; experiment: Bactericidal activity against Staphylococcus aureus ATCC 6538 after 24 hrs; type: functional; conditions: ATCC 6538, 24 h
[10] = tested on: Bacillus cereus; experiment: Bactericidal activity against Bacillus cereus clinical isolate after 24 hrs; type: functional
[11] = tested on: Micrococcus flavus; experiment: Bactericidal activity against Micrococcus flavus ATCC 10240 after 24 hrs; type: functional; conditions: ATCC 10240, 24 h
[12] = tested on: Listeria monocytogenes; experiment: Bactericidal activity against Listeria monocytogenes NCTC 7973 after 24 hrs; type: functional; conditions: NCTC 7973, 24 h
[13] = tested on: Pseudomonas aeruginosa; experiment: Bactericidal activity against Pseudomonas aeruginosa ATCC 27853 after 24 hrs; type: functional; conditions: ATCC 27853, 24 h
[14] = tested on: Salmonella typhimurium; experiment: Bactericidal activity against Salmonella Typhimurium ATCC 13311 after 24 hrs; type: functional, Salmonella enterica subsp. enterica serovar Typhimurium; conditions: Salmonella enterica, ATCC 13311, 24 h
[15] = tested on: Escherichia coli; experiment: Bactericidal activity against Escherichia coli ATCC 35210 after 24 hrs; type: functional; conditions: ATCC 35210, 24 h
[16] = tested on: Enterococcus faecalis; experiment: Bactericidal activity against Enterococcus faecalis isolate obtained from human after 24 hrs; type: functional
[17] = tested on: Aspergillus ochraceus; experiment: Antifungal activity against Aspergillus ochraceus ATCC 12066 after 72 hrs by serial dilution method; type: functional; conditions: ATCC 12066, 72 h
[18] = tested on: Aspergillus versicolor; experiment: Antifungal activity against Aspergillus versicolor ATCC 11730 after 72 hrs by serial dilution method; type: functional; conditions: ATCC 11730, 72 h
[19] = tested on: Aspergillus niger; experiment: Antifungal activity against Aspergillus niger ATCC 6275 after 72 hrs by serial dilution method; type: functional; conditions: ATCC 6275, 72 h
[20] = tested on: Aspergillus fumigatus; experiment: Antifungal activity against Aspergillus fumigatus plant isolate after 72 hrs by serial dilution method; type: functional
[21] = tested on: Trichoderma viride; experiment: Antifungal activity against Trichoderma viride IAM 5061 after 72 hrs by serial dilution method; type: functional; conditions: IAM 5061, 72 h
[22] = tested on: Penicillium ochrochloron; experiment: Antifungal activity against Penicillium ochrochloron ATCC 9112 after 72 hrs by serial dilution method; type: functional; conditions: ATCC 9112, 72 h
[23] = tested on: Talaromyces funiculosus; experiment: Antifungal activity against Penicillium funiculosum ATCC 36839 after 72 hrs by serial dilution method; type: functional; conditions: ATCC 36839, 72 h
[24] = Antifungal activity against Fusarium sporotrichioides IMT 496 after 72 hrs by serial dilution method; type: functional
[25] = tested on: Aspergillus ochraceus; experiment: Fungicidal activity against Aspergillus ochraceus ATCC 12066 after 72 hrs; type: functional; conditions: ATCC 12066, 72 h
[26] = tested on: Aspergillus versicolor; experiment: Fungicidal activity against Aspergillus versicolor ATCC 11730 after 72 hrs; type: functional; conditions: ATCC 11730, 72 h
[27] = tested on: Aspergillus niger; experiment: Fungicidal activity against Aspergillus niger ATCC 6275 after 72 hrs; type: functional; conditions: ATCC 6275, 72 h
[28] = tested on: Aspergillus fumigatus; experiment: Fungicidal activity against Aspergillus fumigatus plant isolate after 72 hrs; type: functional
[29] = tested on: Trichoderma viride; experiment: Fungicidal activity against Trichoderma viride IAM 5061 after 72 hrs; type: functional; conditions: IAM 5061, 72 h
[30] = tested on: Penicillium ochrochloron; experiment: Fungicidal activity against Penicillium ochrochloron ATCC 9112 after 72 hrs; type: functional; conditions: ATCC 9112, 72 h
[31] = tested on: Talaromyces funiculosus; experiment: Fungicidal activity against Penicillium funiculosum ATCC 36839 after 72 hrs; type: functional; conditions: ATCC 36839, 72 h
[32] = tested on: Fusarium sporotrichioides; experiment: Fungicidal activity against Fusarium sporotrichioides IMT 496 after 72 hrs; type: functional; conditions: IMT 496, 72 h

CNc1nc(C)c(C(=O)/C=C/c2c(Cl)cccc2Cl)s1
MIC [1]: 306 µM (≈ 100 µg/mL) | MIC [2]: 260 µM (≈ 85 µg/mL) | MIC [3]: 229 µM (≈ 75 µg/mL) | MIC [4]: 306 µM (≈ 100 µg/mL) | MIC [5]: 229 µM (≈ 75 µg/mL) | MIC [6]: 306 µM (≈ 100 µg/mL) | MIC [7]: 229 µM (≈ 75 µg/mL) | MIC [8]: 153 µM (≈ 50 µg/mL) | MBC [9]: 459 µM (≈ 150 µg/mL) | MBC [10]: 306 µM (≈ 100 µg/mL) | MBC [11]: 306 µM (≈ 100 µg/mL) | MBC [12]: 459 µM (≈ 150 µg/mL) | MBC [13]: 306 µM (≈ 100 µg/mL) | MBC [14]: 306 µM (≈ 100 µg/mL) | MBC [15]: 306 µM (≈ 100 µg/mL) | MBC [16]: 306 µM (≈ 100 µg/mL) | MIC [17]: 459 µM (≈ 150 µg/mL) | MIC [18]: 306 µM (≈ 100 µg/mL) | MIC [19]: 306 µM (≈ 100 µg/mL) | MIC [20]: 306 µM (≈ 100 µg/mL) | MIC [21]: 153 µM (≈ 50 µg/mL) | MIC [22]: 153 µM (≈ 50 µg/mL) | MIC [23]: 306 µM (≈ 100 µg/mL) | MIC (10'-2 umol/ml) [24]: 15.3 | MFC [25]: 612 µM (≈ 200 µg/mL) | MFC [26]: 459 µM (≈ 150 µg/mL) | MFC [27]: 612 µM (≈ 200 µg/mL) | MFC [28]: 306 µM (≈ 100 µg/mL) | MFC [29]: 306 µM (≈ 100 µg/mL) | MFC [30]: 459 µM (≈ 150 µg/mL) | MFC [31]: 459 µM (≈ 150 µg/mL) | MFC [32]: 459 µM (≈ 150 µg/mL)

CNc1nc(C)c(C(=O)/C=C/c2ccc(Cl)cc2Cl)s1
MIC [1]: 306 µM (≈ 100 µg/mL) | MIC [2]: 229 µM (≈ 75 µg/mL) | MIC [3]: 306 µM (≈ 100 µg/mL) | MIC [4]: 306 µM (≈ 100 µg/mL) | MIC [5]: 306 µM (≈ 100 µg/mL) | MIC [6]: 229 µM (≈ 75 µg/mL) | MIC [7]: 306 µM (≈ 100 µg/mL) | MIC [8]: 306 µM (≈ 100 µg/mL) | MBC [9]: 459 µM (≈ 150 µg/mL) | MBC [10]: 306 µM (≈ 100 µg/mL) | MBC [11]: 459 µM (≈ 150 µg/mL) | MBC [12]: 459 µM (≈ 150 µg/mL) | MBC [13]: 306 µM (≈ 100 µg/mL) | MBC [14]: 306 µM (≈ 100 µg/mL) | MBC [15]: 459 µM (≈ 150 µg/mL) | MBC [16]: 459 µM (≈ 150 µg/mL) | MIC [17]: 306 µM (≈ 100 µg/mL) | MIC [18]: 153 µM (≈ 50 µg/mL) | MIC [19]: 459 µM (≈ 150 µg/mL) | MIC [20]: 153 µM (≈ 50 µg/mL) | MIC [21]: 153 µM (≈ 50 µg/mL) | MIC [22]: 306 µM (≈ 100 µg/mL) | MIC [23]: 153 µM (≈ 50 µg/mL) | MIC (10'-2 umol/ml) [24]: 15.3 | MFC [25]: 612 µM (≈ 200 µg/mL) | MFC [26]: 612 µM (≈ 200 µg/mL) | MFC [27]: 612 µM (≈ 200 µg/mL) | MFC [28]: 612 µM (≈ 200 µg/mL) | MFC [29]: 306 µM (≈ 100 µg/mL) | MFC [30]: 612 µM (≈ 200 µg/mL) | MFC [31]: 306 µM (≈ 100 µg/mL) | MFC [32]: 306 µM (≈ 100 µg/mL)

CNc1nc(C)c(C(=O)/C=C/c2cccc([N+](=O)[O-])c2)s1
MIC [1]: 330 µM (≈ 100 µg/mL) | MIC [2]: 330 µM (≈ 100 µg/mL) | MIC [3]: 330 µM (≈ 100 µg/mL) | MIC [4]: 330 µM (≈ 100 µg/mL) | MIC [5]: 280 µM (≈ 85.1 µg/mL) | MIC [6]: 280 µM (≈ 85.1 µg/mL) | MIC [7]: 248 µM (≈ 75.1 µg/mL) | MIC [8]: 330 µM (≈ 100 µg/mL) | MBC [9]: 495 µM (≈ 150 µg/mL) | MBC [10]: 330 µM (≈ 100 µg/mL) | MBC [11]: 495 µM (≈ 150 µg/mL) | MBC [12]: 495 µM (≈ 150 µg/mL) | MBC [13]: 330 µM (≈ 100 µg/mL) | MBC [14]: 330 µM (≈ 100 µg/mL) | MBC [15]: 330 µM (≈ 100 µg/mL) | MBC [16]: 330 µM (≈ 100 µg/mL) | MIC [17]: 330 µM (≈ 100 µg/mL) | MIC [18]: 330 µM (≈ 100 µg/mL) | MIC [19]: 330 µM (≈ 100 µg/mL) | MIC [20]: 330 µM (≈ 100 µg/mL) | MIC [21]: 165 µM (≈ 50.1 µg/mL) | MIC [22]: 330 µM (≈ 100 µg/mL) | MIC [23]: 330 µM (≈ 100 µg/mL) | MIC (10'-2 umol/ml) [24]: 33 | MFC [25]: 496 µM (≈ 150 µg/mL) | MFC [26]: 496 µM (≈ 150 µg/mL) | MFC [27]: 660 µM (≈ 200 µg/mL) | MFC [28]: 496 µM (≈ 150 µg/mL) | MFC [29]: 330 µM (≈ 100 µg/mL) | MFC [30]: 496 µM (≈ 150 µg/mL) | MFC [31]: 496 µM (≈ 150 µg/mL) | MFC [32]: 660 µM (≈ 200 µg/mL)
